Results published in patent US20260374818A1, “CATIONIC PEPTIDES WITH BROAD SPECTRUM ACTIVITY” (priority 2023, published 2026).
Where a SMILES comes first, the peptide text is derived from it. [ ]: non-standard residue; d: D form.

What was measured:
[1] = tested on: S. epidermidis biofilms on Ker-CT epidermal skin; experiment: Skin organoid biofilm model, AB103-D loaded Medvance foam dressing, S. epidermidis; assay type: cell-based, Staphylococcus epidermidis
[2] = tested on: S. aureus USA300 (MRSA) wound biofilms; experiment: Porcine dermal biofilm wound infection model, MRSA; assay type: in vivo, porcine; methicillin resistant Staphylococcus aureus; details: compared with ciprofloxacin, mupirocin
Excerpt: . Peptide (PEP1=DJK5; PEP3=AB103-D) solutions were used to hydrate Puracol® resorbable dressings made of collagen either alone or in the presence of antibiotic (ABX1=ciprofloxacin). Briefly, partial thickness wounds (10 mm×7 mm×1 mm deep) were created on the backs of the animals then infected with log-phase cultures of bacteria and allowed biofilms to form for 24-hrs. Dressings were applied to infected wounds of either MRSA S. aureus USA300 (FIG. 6A) or P. aeruginosa 27312 (FIG. 6B) as either a single treatment (day 1) or twice treated (Day 1 and 4) and all wounds were excised on day 7 for CFU renumeration. The amount of peptide applied in all treatments was 10 mg while 1 mg of ciprofloxacin was used in and treatment containing antibiotic. Mupirocin and silver sulfadiazine (SSD) were used as positive controls.
In vivo porcine dermal biofilm model: Peptide loaded dressings were evaluated using a porcine dermal biofilm infection model as described previously [Davis, S. C., et al. (2018). The wound-healing effects of a next-generation anti-biofilm silver Hydrofiber wound dressing on deep partial-thickness wounds using a porcine model. International Wound Journal, 15(5), 834-839]. Briefly, partial thickness wounds (10 mm×7 mm×1 mm deep) were created on the backs of the animals then infected with log-phase cultures of bacteria and allowed biofilms to form for 24-hrs. […]

[3] = tested on: 3-day-old oral plaque biofilms; experiment: Oral plaque biofilm model, brief (1 minute) exposure, dead cell volume; assay type: cell-based; details: 10 μg/ml, 1 minute once or three times, compared to DJK5
[4] = tested on: MRSA USA 300 LAC biofilms; experiment: Checkerboard biofilm synergy of AB103-D with antimicrobials, MRSA; assay type: cell-based, methicillin resistant Staphylococcus aureus
[5] = tested on: MRSA biofilms on Ker-CT epidermal skin; experiment: Skin organoid biofilm model, AB103-D loaded Medvance foam dressing, MRSA; assay type: cell-based, methicillin resistant Staphylococcus aureus
[6] = tested on: oral multispecies biofilm; experiment: Oral multispecies biofilm development on HA disks; assay type: cell-based; details: 10 μg/ml, 3 days

CC[C@@H](C)[C@@H](NC(=O)[C@@H](C)NC(=O)[C@@H](CCCNC(=N)N)NC(=O)[C@@H](Cc1c[nH]c2ccccc12)NC(=O)[C@@H](CCC(N)=O)NC(=O)[C@H](NC(=O)[C@@H](CCCNC(=N)N)NC(=O)[C@H](NC(=O)[C@H](NC(=O)[C@@H](CCCNC(=N)N)NC(=O)[C@H](NC(=O)[C@H](N)CCCNC(=N)N)C(C)C)C(C)C)[C@H](C)CC)C(C)C)C(N)=O [AB103-D, rvrvirvqwrai-NH2] (H-[dR][dV][dR][dV][dI][dR][dV][dQ][dW][dR][dA][dI]-NH2)
Bacterial burden on organoid skin, loaded bandage [1]: effectively reduce the bacterial burden
Efficacy in porcine skin infection [2]: worked as well or better than ciprofloxacin, mupirocin (for MRSA)
Killing of 3-day-old oral plaque biofilms [3]: significantly more effective than DJK5
Synergy with several other antimicrobials ([4]; MRSA USA 300 biofilms): proved synergistic with several other antimicrobials
MBIC of AB103-D alone ([4]; MRSA, 10% TSB + 0.1% glucose, at least 70% reduction of biofilm biomass): 1 µg/mL
Bacterial burden on organoid skin, loaded bandage [5]: effectively reduce the bacterial burden
Total biovolume [6]: reduced total biovolume
Percentage of dead bacterial cell volume ([6]; compared to DJK5): significantly higher percentage of dead bacterial cell volume compared to DJK5 treatment
